# Measured values published in patent publication US7235678B2 (priority 2004, dated 2007).
# What was measured:
# [1] = test system: Benjaminiella poitrasii; experiment: microbe, parasite or virus in culture; assay type: cell-based; conditions: B. poitrassi, disc method; for MIC: 28° C.
# [2] = test system: Candida albicans (5 isolates); experiment: Antibiotic inhibition assay using disc method, C. albicans isolates; assay type: cell-based
# [3] = test system: Yarrowia lipolytica; experiment: Antibiotic inhibition assay using disc method, Y. lipolytica; assay type: cell-based; conditions: for MIC: 28° C.
# [4] = test system: Candida albicans (5 isolates), Benjaminiella poitrasii and Yarrowia lipolytica; experiment: Antibiotic inhibition assay using disc method, all fungi tested together; assay type: cell-based; conditions: for antifungal activity (in words): Candida albicans (five isolates), Benjaminiella poitrasii and Yarrowia lipolytica, compared with cycloheximide; for MIC: all five C. albicans isolates, B. poitrassi and Y. lipolytica
# [5] = test system: clinical isolate of C. albicans; conditions: microtitre dilution broth assay; cited from earlier work
# [6] = C. albicans, Isolate no. 1, disc method
# [7] = C. albicans, Isolate no. 1, disc method, 28° C., 24 hours
# [8] = C. albicans, Isolate no. 2, disc method
# [9] = C. albicans, Isolate no. 2, disc method, 28° C., 24 hours
# [10] = C. albicans, Isolate no. 3, disc method
# [11] = C. albicans, Isolate no. 3, disc method, 28° C., 24 hours
# [12] = C. albicans, Isolate no. 4, disc method
# [13] = C. albicans, Isolate no. 4, disc method, 28° C., 24 hours
# [14] = C. albicans, Isolate no. 5, disc method
# [15] = C. albicans, Isolate no. 5, disc method, 28° C., 24 hours
Compound,Inhibition Zone [1] [cm],MIC ([1]; 24 hours) [µM],"Inhibition Zone [2, 6] [cm]","MIC [2, 7] [µM]","Inhibition Zone [2, 8] [cm]","MIC [2, 9] [µM]","Inhibition Zone [2, 10] [cm]","MIC [2, 11] [µM]","Inhibition Zone [2, 12] [cm]","MIC [2, 13] [µM]","Inhibition Zone [2, 14] [cm]","MIC [2, 15] [µM]",Inhibition Zone [3] [cm],MIC ([3]; 24 hours) [µM],antifungal activity (in words) [4],MIC [4] [µM],further results
"CC(CCC(=O)NCCNCCNC(=O)CCC(C)C1CCC2C3C(O)CC4CC(O)CCC4(C)C3CC(O)C12C)C1CCC2C3C(O)CC4CC(O)CCC4(C)C3CC(O)C12C (stereo not drawn) [Compound (1), N^1,N^3-Diethylenetriaminebis [cholic acid amide]]",0.7,0.01132,0.8,0.01132,0.8,0.01132,0.8,0.01132,0.8,0.01132,0.8,0.01132,0.9,0.01132,very good antifungal activity,0.01132,"minimum inhibitory concentration (MIC) ([4]; summary in description, fungi not specified): about 11.30 nM"
"C[C@@H]1C[C@@H]([C@H](O)CC2CC(=O)NC(=O)C2)C(=O)[C@@H](C)C1 [Cycloheximide, reference compound]",1.45,0.0712,1.0,–,0.9,–,0.9,–,1.0,–,0.8,–,0.9,0.1068,–,–,"MIC ([1]; Benjaminiella poitrasii, 24 h): 0.071 µM; MIC ([2]; Candida albicans, 24 h, C. albicans, Isolate no. 1, disc method, 28° C.): 0.356 µM; MIC ([2]; Candida albicans, 24 h, C. albicans, Isolate no. 2, disc method, 28° C.): 0.539 µM; MIC ([2]; Candida albicans, 24 h, C. albicans, Isolate no. 3, disc method, 28° C.): 0.267 µM; MIC ([2]; Candida albicans, 24 h, C. albicans, Isolate no. 4, disc method, 28° C.): 0.534 µM; MIC ([2]; Candida albicans, 24 h, C. albicans, Isolate no. 5, disc method, 28° C.): 0.534 µM; MIC ([2]; Candida albicans, isolates of C. albicans, range over isolates): 0.25 to 0.5 µM; MIC [5]: greater than 900 nM; MIC ([3]; Yarrowia lipolytica, 24 h): 0.106 µM"
"N^1,N^3-Diethylenetriaminebis [Compound (2), N^1,N^3-Diethylenetriaminebis [deoxycholic acid amide]]",0.6,0.01763,0.9,0.01175,0.7,0.01175,1.0,0.01175,0.8,0.01175,0.9,0.01763,0.8,0.0235,moderate antifungal activity,0.01 to 0.025,–
